Bridge positions count the residues as written; N and C are the ends. Square brackets hold non-standard residues; d marks the D form. Peptide text beside a SMILES is read from it. 2Nal = N[C@@H](Cc1ccc2ccccc2c1)C(=O)O; Met(O2) = CS(=O)(=O)CC[C@H](N)C(=O)O; 2Pal = N[C@@H](Cc1ccccn1)C(=O)O; Tic = O=C(O)[C@@H]1Cc2ccccc2CN1; Chg = N[C@H](C(=O)O)C1CCCCC1
Molecular target: VLA-4-IgG chimeric protein (Homo sapiens, UniProt P05556+P13612)
Assay: Inhibition of binding of CS-1 peptide and VLA-4-IgG chimeric protein
Details: binding of immobilized CS-1 peptide and VLA-4-IgG chimeric protein, absorbance at 490 nm
Source text: As the method for investigating the adhesion inhibiting activity in terms of VLA-4, there can be used an adhesion measuring system for cells such as Ramos cells and Jurkat cells, and fibronectin or a fibronectin fragment, for example a peptide consisting of the CS-1 sequence (Gly Pro Glu Ile Leu Asp Val Pro Ser Thr SEQ ID NO:59) [hereinafter referred to as the CS-1 peptide], immobilized on an immunoplate. Furthermore, as another method, there can be used a binding measurement system for VLA-4 protein and fibronectin or a fibronectin fragment, for example the CS-1 peptide, immobilized on an immunoplate or the like. In the present invention, it is preferred that the inhibiting activity of a compound be evaluated in a binding measurement system for a VLA-4 and immunoglobulin chimeric protein (VLA-4-IgG chimeric protein) and a peptide containing the CS-1 sequence (WO98/032771), but there is no restriction thereto. Reference here to VLA-4-IgG chimeric protein means a heterodimer complex molecule formed when a VLA-4 α4 and immunoglobulin chimeric protein (referred to hereinafter as the VLAα4.IgG chimeric protein) and a VLA-4 β1 and immunoglobulin chimeric protein (referred to hereinafter as the VLAβ1.IgG chimeric protein) undergo association. Moreover, for the immunoglobulin, there can be used heavy or light chains of IgG, IgM or the like, and in the present invention IgG1 heavy chains were used. When observing the cyclic peptide inhibition effect, it is best to use a previously prepared mixture of the α4.IgG heavy chain-β1.IgG heavy chain chimeric protein heterodimer complex and the test material.
Cyclic peptide inhibiting effect in terms of the binding of CS-1 peptide and VLA-4-IgG chimeric protein.
A conjugate of the peptide containing the CS-1 sequence shown in SEQ ID NO:57 and rabbit IgG (Sigma) was prepared in accordance with the literature (Humphries, M. J. et al, J. Biol. Chem., 262, 6886-6892 (1987)). This was diluted with PBS(−), and 100 μl/well quantities introduced into a 96 well immunoplate (NUNC), after which this was left to stand for 16 hours at 4° C. and the CS-1 peptide immobilized.
Gys Lue His Gly Pro Glu Ile Leu Asp Val Pro Ser Thr (SEQ ID NO:57)
Next, after washing the interior of the wells twice with PBS(−), 300 μl/well quantities of 1% BSA-PBS solution which had been heat treated for 10 minutes at 80° C. were introduced, then left for 3 hours at 4° C., after which the solution inside the wells was removed by suction.
Each cyclic peptide and VLA-4-IgG chimeric protein (100 μl) were reacted together beforehand for 20 minutes at room temperature, and then reaction carried out for 3 hours at 30° C. with the CS-1 peptide. Subsequently, the non-bonded VLA-4-IgG chimeric protein was removed by suction, and washed away twice with TBS buffer (150 mM NaCl, 25 mM Tris-HCl, 1 mM MnCl2 pH 7.4) containing 0.1% BSA. To the bonded VLA-4-IgG chimeric protein, biotin labelled anti-human IgG antibody (Vector) as the first antibody was added, and then avidin labelled horseradish peroxidase (Sigma) was added as the second antibody and reaction carried out. Following the reaction, o-phenylenediamine was added as a substrate and colour development effected, and then the absorbance measured at 490 nm. From this absorbance, the binding inhibition activity due to the respective peptides was determined.

Chain of VLA-4-IgG chimeric protein (P13612 34-1032, change not shown): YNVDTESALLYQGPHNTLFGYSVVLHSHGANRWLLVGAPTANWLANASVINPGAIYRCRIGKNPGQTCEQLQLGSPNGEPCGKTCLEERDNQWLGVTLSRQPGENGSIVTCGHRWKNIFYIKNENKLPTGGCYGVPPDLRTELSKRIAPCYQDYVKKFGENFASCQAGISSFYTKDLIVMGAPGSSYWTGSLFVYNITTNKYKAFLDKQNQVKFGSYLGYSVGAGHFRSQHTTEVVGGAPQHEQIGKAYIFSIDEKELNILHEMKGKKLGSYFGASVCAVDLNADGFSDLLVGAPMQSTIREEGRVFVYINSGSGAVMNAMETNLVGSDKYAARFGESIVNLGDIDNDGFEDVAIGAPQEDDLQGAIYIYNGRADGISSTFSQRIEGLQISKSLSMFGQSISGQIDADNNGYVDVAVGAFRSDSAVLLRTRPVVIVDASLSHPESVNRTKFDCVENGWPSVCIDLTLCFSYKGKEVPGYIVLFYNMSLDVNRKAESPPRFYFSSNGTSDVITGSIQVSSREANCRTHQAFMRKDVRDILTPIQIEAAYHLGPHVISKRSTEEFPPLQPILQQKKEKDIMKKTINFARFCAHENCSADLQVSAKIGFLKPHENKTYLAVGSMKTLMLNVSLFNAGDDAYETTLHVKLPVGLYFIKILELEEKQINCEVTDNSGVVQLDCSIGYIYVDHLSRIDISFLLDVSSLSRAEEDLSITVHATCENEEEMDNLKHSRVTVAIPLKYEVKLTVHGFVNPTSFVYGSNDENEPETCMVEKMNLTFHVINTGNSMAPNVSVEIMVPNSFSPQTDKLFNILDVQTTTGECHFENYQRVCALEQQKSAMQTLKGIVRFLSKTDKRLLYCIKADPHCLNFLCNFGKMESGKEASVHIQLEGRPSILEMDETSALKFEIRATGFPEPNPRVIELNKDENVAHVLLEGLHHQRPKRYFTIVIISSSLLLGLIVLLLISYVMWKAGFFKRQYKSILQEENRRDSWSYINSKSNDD
Chain of VLA-4-IgG chimeric protein (P05556 21-798, change not shown): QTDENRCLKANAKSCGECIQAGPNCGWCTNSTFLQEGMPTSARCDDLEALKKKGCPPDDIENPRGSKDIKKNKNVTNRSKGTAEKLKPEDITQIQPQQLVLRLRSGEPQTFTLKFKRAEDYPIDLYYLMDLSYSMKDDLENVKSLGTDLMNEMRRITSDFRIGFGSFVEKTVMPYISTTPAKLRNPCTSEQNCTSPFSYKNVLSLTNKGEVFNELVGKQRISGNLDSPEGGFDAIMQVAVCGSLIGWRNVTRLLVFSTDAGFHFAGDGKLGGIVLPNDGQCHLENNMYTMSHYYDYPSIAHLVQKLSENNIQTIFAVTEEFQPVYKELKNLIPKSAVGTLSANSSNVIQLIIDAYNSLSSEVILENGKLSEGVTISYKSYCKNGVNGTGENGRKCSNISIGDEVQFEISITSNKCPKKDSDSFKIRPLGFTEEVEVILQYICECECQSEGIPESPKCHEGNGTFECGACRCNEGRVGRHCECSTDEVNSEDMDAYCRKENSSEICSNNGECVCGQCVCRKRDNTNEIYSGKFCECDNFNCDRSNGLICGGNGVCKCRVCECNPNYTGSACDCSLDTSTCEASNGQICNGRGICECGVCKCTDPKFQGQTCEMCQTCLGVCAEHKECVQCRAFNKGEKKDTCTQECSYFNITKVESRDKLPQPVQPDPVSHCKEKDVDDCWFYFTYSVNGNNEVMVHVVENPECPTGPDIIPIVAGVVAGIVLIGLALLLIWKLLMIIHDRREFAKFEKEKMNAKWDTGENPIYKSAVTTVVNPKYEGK

Row | Structure (SMILES) | IC50 [nM]
1 | CC[C@H](C)[C@@H]1NC(=O)[C@@H](N)CSSC[C@@H](C(=O)O)NC(=O)[C@H](CC(C)C)NC(=O)[C@H](Cc2c[nH]cn2)NC(=O)[C@H](CC(=O)O)NC1=O [compound 4] (H-CIDHLC-OH; disulfide 1-6) | 1200
2 | CC(C)C[C@@H]1NC(=O)[C@H](Cc2c[nH]cn2)NC(=O)[C@H](CC(=O)O)NC(=O)[C@@H]2Cc3ccccc3CN2C(=O)[C@@H](N)CSSC[C@@H](C(=O)O)NC1=O [compound 25] (H-C[Tic]DHLC-OH; disulfide 1-6) | 650
3 | CC[C@H](C)[C@@H]1NC(=O)[C@@H](N)CSSC[C@@H](C(=O)O)NC(=O)[C@H](CC(C)C)NC(=O)[C@H](Cc2c[nH]cn2)NC(=O)[C@H](CCC(=O)O)NC1=O [compound 9] (H-CIEHLC-OH; disulfide 1-6) | 1600
4 | CC[C@H](C)[C@@H]1NC(=O)[C@@H](N)CSSC[C@@H](C(=O)O)NC(=O)[C@H](CC(C)C)NC(=O)[C@H](Cc2c[nH]c3ccccc23)NC(=O)[C@H](CC(=O)O)NC1=O [compound 31] (H-CIDWLC-OH; disulfide 1-6) | 450
5 | CC[C@H](C)[C@@H]1NC(=O)[C@@H](N)CSSC[C@@H](C(=O)O)NC(=O)[C@H](CC(C)C)NC(=O)[C@H](Cc2ccccn2)NC(=O)[C@H](CC(=O)O)NC1=O [compound 29] (H-CID[2Pal]LC-OH; disulfide 1-6) | 500
6 | CC[C@H](C)[C@@H]1NC(=O)[C@@H](N)CSSC[C@@H](C(=O)O)NC(=O)[C@H](CC(C)C)NC(=O)[C@H](Cc2ccc3ccccc3c2)NC(=O)[C@H](CC(=O)O)NC1=O [compound 34] (H-CID[2Nal]LC-OH; disulfide 1-6; N-terminus and C-terminus assumed) | 600
7 | CC(C)C[C@@H]1NC(=O)[C@H](Cc2c[nH]cn2)NC(=O)[C@H](CC(=O)O)NC(=O)[C@H](C2CCCCC2)NC(=O)[C@@H](N)CSSC[C@@H](C(=O)O)NC1=O [compound 22] (H-C[Chg]DHLC-OH; disulfide 1-6) | 120
8 | CC[C@H](C)[C@@H]1NC(=O)[C@@H](N)CSSC[C@@H](C(=O)O)NC(=O)[C@H](CC(C)C)NC(=O)[C@H](Cc2c[nH]cn2)NC(=O)[C@H](CCS(C)(=O)=O)NC1=O [compound 17] (H-CI[Met(O2)]HLC-OH; disulfide 1-6) | 800
9 | CC[C@H](C)[C@@H]1NC(=O)[C@H](Cc2ccccc2)NC(=O)[C@H](CC(=O)O)NC(=O)[C@H]([C@@H](C)CC)NC(=O)[C@@H](N)CSSC[C@@H](C(=O)O)NC1=O [compound 48] (H-CIDFIC-OH; disulfide 1-6) | 250

Test system: not listed separately
Assay: Stability in mouse serum
Type: in vitro ADME
Details: not given

Row | Structure (SMILES) | stability in mouse serum
10 | CC[C@H](C)[C@@H]1NC(=O)[C@@H](N)CSSC[C@@H](C(=O)O)NC(=O)[C@H](CC(C)C)NC(=O)[C@H](Cc2c[nH]cn2)NC(=O)[C@H](CCS(C)(=O)=O)NC1=O [Sequence Number 17, C*IMet(O2)HLC*] (H-CI[Met(O2)]HLC-OH; disulfide 1-6; N-terminus and C-terminus assumed) | stable for 24 hours
